Source: PubChem BioAssay AID1963978 (Molecular Pharmacology Branch, DTP, NCI, 2024)

System: 616215-338-R-J1-PDC spheroids with HUVEC/MSC, viability
Assay: Anticancer human tumor 616215-338-R-J1-PDC patient-derived colon adenocarcinoma cell line growth inhibition [PI3K]
Conditions: for IC50: curve of first compound; for viability, T/C: stronger effect = lower value
Procedure, shortened: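 Complex 3D spheroids (cancer cells + endothelial HUVEC + mesenchymal stem cells); drug pairs of targeted agent x inavolisib/alpelisib/duvelisib/copanlisib; half-log series from ~Cmax, max 10 microM if Cmax unknown; endpoint viability.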

[1] = second compound 0.0316 µM, first compound 0.000316 µM
[2] = second compound 0.0316 µM, first compound 0.001 µM
[3] = second compound 0.0316 µM, first compound 0.00316 µM
[4] = second compound 0.0316 µM, first compound 0.01 µM
[5] = second compound 0.0316 µM, first compound 0.0316 µM
[6] = second compound 0.0316 µM, first compound 0.1 µM
[7] = second compound 0.1 µM, first compound 0.000316 µM
[8] = second compound 0.1 µM, first compound 0.001 µM
[9] = second compound 0.1 µM, first compound 0.00316 µM
[10] = second compound 0.1 µM, first compound 0.01 µM
[11] = second compound 0.1 µM, first compound 0.0316 µM
[12] = second compound 0.1 µM, first compound 0.1 µM
[13] = second compound 0.316 µM, first compound 0.000316 µM
[14] = second compound 0.316 µM, first compound 0.001 µM
[15] = second compound 0.316 µM, first compound 0.00316 µM
[16] = second compound 0.316 µM, first compound 0.01 µM
[17] = second compound 0.316 µM, first compound 0.0316 µM
[18] = second compound 0.316 µM, first compound 0.1 µM
[19] = second compound 1 µM, first compound 0.000316 µM
[20] = second compound 1 µM, first compound 0.001 µM
[21] = second compound 1 µM, first compound 0.00316 µM
[22] = second compound 1 µM, first compound 0.01 µM
[23] = second compound 1 µM, first compound 0.0316 µM
[24] = second compound 1 µM, first compound 0.1 µM
[25] = second compound 3.16 µM, first compound 0.000316 µM
[26] = second compound 3.16 µM, first compound 0.001 µM
[27] = second compound 3.16 µM, first compound 0.00316 µM
[28] = second compound 3.16 µM, first compound 0.01 µM
[29] = second compound 3.16 µM, first compound 0.0316 µM
[30] = second compound 3.16 µM, first compound 0.1 µM
[31] = second compound 10 µM, first compound 0.000316 µM
[32] = second compound 10 µM, first compound 0.001 µM
[33] = second compound 10 µM, first compound 0.00316 µM
[34] = second compound 10 µM, first compound 0.01 µM
[35] = second compound 10 µM, first compound 0.0316 µM
[36] = second compound 10 µM, first compound 0.1 µM
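Also: spheroids exposed to agents for seven days before the viability read.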

Cn1ncnc1[C@H]1c2n[nH]c(=O)c3cc(F)cc(c23)N[C@@H]1c1ccc(F)cc1 + CC(Nc1ncnc2nc[nH]c12)c1cc2cccc(Cl)c2c(=O)n1-c1ccccc1
IC50 (second compound 0.0316 µM): > 0.1 µM
IC50 (second compound 0.1 µM): > 0.1 µM
IC50 (second compound 0.316 µM): > 0.1 µM
IC50 (second compound 1 µM): > 0.1 µM
IC50 (second compound 3.16 µM): > 0.1 µM
IC50 (second compound 10 µM): > 0.1 µM
viability, T/C [1]: 104%
viability, T/C [2]: 104%
viability, T/C [3]: 102%
viability, T/C [4]: 96.8%
viability, T/C [5]: 105%
viability, T/C [6]: 96.8%
viability, T/C [7]: 87.6%
viability, T/C [8]: 97.8%
viability, T/C [9]: 97%
viability, T/C [10]: 92.9%
viability, T/C [11]: 101%
viability, T/C [12]: 93.5%
viability, T/C [13]: 98.5%
viability, T/C [14]: 95.6%
viability, T/C [15]: 106%
viability, T/C [16]: 96.9%
viability, T/C [17]: 96.9%
viability, T/C [18]: 101%
viability, T/C [19]: 101%
viability, T/C [20]: 109%
viability, T/C [21]: 99.7%
viability, T/C [22]: 105%
viability, T/C [23]: 100%
viability, T/C [24]: 91.5%
viability, T/C [25]: 91.5%
viability, T/C [26]: 108%
viability, T/C [27]: 106%
viability, T/C [28]: 90%
viability, T/C [29]: 94.9%
viability, T/C [30]: 100%
viability, T/C [31]: 111%
viability, T/C [32]: 106%
viability, T/C [33]: 102%
viability, T/C [34]: 96.7%
viability, T/C [35]: 100%
viability, T/C [36]: 95%

CC(=O)c1c(C)c2cnc(Nc3ccc(N4CCNCC4)cn3)nc2n(C2CCCC2)c1=O + Cc1nc(NC(=O)N2CCCC2C(N)=O)sc1-c1ccnc(C(C)(C)C(F)(F)F)c1
IC50 (second compound 0.0316 µM): > 0.1 µM
IC50 (second compound 0.1 µM): > 0.1 µM
IC50 (second compound 0.316 µM): > 0.1 µM
IC50 (second compound 1 µM): > 0.1 µM
IC50 (second compound 3.16 µM): > 0.1 µM
IC50 (second compound 10 µM): > 0.1 µM
viability, T/C [1]: 97.4%
viability, T/C [2]: 96.8%
viability, T/C [3]: 102%
viability, T/C [4]: 110%
viability, T/C [5]: 98%
viability, T/C [6]: 113%
viability, T/C [7]: 102%
viability, T/C [8]: 95.7%
viability, T/C [9]: 105%
viability, T/C [10]: 87.9%
viability, T/C [11]: 104%
viability, T/C [12]: 111%
viability, T/C [13]: 109%
viability, T/C [14]: 97.3%
viability, T/C [15]: 88.1%
viability, T/C [16]: 99.9%
viability, T/C [17]: 104%
viability, T/C [18]: 108%
viability, T/C [19]: 111%
viability, T/C [20]: 108%
viability, T/C [21]: 97.2%
viability, T/C [22]: 100%
viability, T/C [23]: 103%
viability, T/C [24]: 91.7%
viability, T/C [25]: 91.8%
viability, T/C [26]: 95.6%
viability, T/C [27]: 90.5%
viability, T/C [28]: 98.4%
viability, T/C [29]: 105%
viability, T/C [30]: 101%
viability, T/C [31]: 97.5%
viability, T/C [32]: 93%
viability, T/C [33]: 90.5%
viability, T/C [34]: 93%
viability, T/C [35]: 91%
viability, T/C [36]: 97%
